Assay results reported in PubChem BioAssay AID1963971 (Molecular Pharmacology Branch, DTP, NCI, 2024).

Tested on: 953936-095-R-J2-PDC spheroids with HUVEC/MSC, viability
Experiment: Anticancer human tumor 953936-095-R-J2-PDC patient-derived cervical squamous cell carcinoma cell line growth inhibition [PI3K]
Conditions: for viability, T/C: stronger effect = lower value
Procedure, shortened: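 High-throughput combination screen: PI3K inhibitors crossed with targeted small molecules on complex spheroids of tumor cells, HUVEC and MSCs at 37 degrees C, 5% CO2. Top concentration was at or near clinical Cmax (otherwise 10 microM), with half-log decrements.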

[1] = curve of first compound, second compound 0.00316 µM
[2] = curve of first compound, second compound 0.01 µM
[3] = curve of first compound, second compound 0.0316 µM
[4] = curve of first compound, second compound 0.1 µM
[5] = curve of first compound, second compound 0.316 µM
[6] = curve of first compound, second compound 1 µM
[7] = second compound 0.00316 µM, first compound 0.0316 µM
[8] = second compound 0.00316 µM, first compound 0.1 µM
[9] = second compound 0.00316 µM, first compound 0.316 µM
[10] = second compound 0.00316 µM, first compound 1 µM
[11] = second compound 0.00316 µM, first compound 3.16 µM
[12] = second compound 0.00316 µM, first compound 10 µM
[13] = second compound 0.01 µM, first compound 0.0316 µM
[14] = second compound 0.01 µM, first compound 0.1 µM
[15] = second compound 0.01 µM, first compound 0.316 µM
[16] = second compound 0.01 µM, first compound 1 µM
[17] = second compound 0.01 µM, first compound 3.16 µM
[18] = second compound 0.01 µM, first compound 10 µM
[19] = second compound 0.0316 µM, first compound 0.0316 µM
[20] = second compound 0.0316 µM, first compound 0.1 µM
[21] = second compound 0.0316 µM, first compound 0.316 µM
[22] = second compound 0.0316 µM, first compound 1 µM
[23] = second compound 0.0316 µM, first compound 3.16 µM
[24] = second compound 0.0316 µM, first compound 10 µM
[25] = second compound 0.1 µM, first compound 0.0316 µM
[26] = second compound 0.1 µM, first compound 0.1 µM
[27] = second compound 0.1 µM, first compound 0.316 µM
[28] = second compound 0.1 µM, first compound 1 µM
[29] = second compound 0.1 µM, first compound 3.16 µM
[30] = second compound 0.1 µM, first compound 10 µM
[31] = second compound 0.316 µM, first compound 0.0316 µM
[32] = second compound 0.316 µM, first compound 0.1 µM
[33] = second compound 0.316 µM, first compound 0.316 µM
[34] = second compound 0.316 µM, first compound 1 µM
[35] = second compound 0.316 µM, first compound 3.16 µM
[36] = second compound 0.316 µM, first compound 10 µM
[37] = second compound 1 µM, first compound 0.0316 µM
[38] = second compound 1 µM, first compound 0.1 µM
[39] = second compound 1 µM, first compound 0.316 µM
[40] = second compound 1 µM, first compound 1 µM
[41] = second compound 1 µM, first compound 3.16 µM
[42] = second compound 1 µM, first compound 10 µM
[43] = curve of first compound, second compound 3.16 µM
[44] = curve of first compound, second compound 10 µM
[45] = second compound 3.16 µM, first compound 0.0316 µM
[46] = second compound 3.16 µM, first compound 0.1 µM
[47] = second compound 3.16 µM, first compound 0.316 µM
[48] = second compound 3.16 µM, first compound 1 µM
[49] = second compound 3.16 µM, first compound 3.16 µM
[50] = second compound 3.16 µM, first compound 10 µM
[51] = second compound 10 µM, first compound 0.0316 µM
[52] = second compound 10 µM, first compound 0.1 µM
[53] = second compound 10 µM, first compound 0.316 µM
[54] = second compound 10 µM, first compound 1 µM
[55] = second compound 10 µM, first compound 3.16 µM
[56] = second compound 10 µM, first compound 10 µM
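Also: spheroids exposed to compounds for seven days before read-out.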

C#Cc1c(F)ccc2cc(O)cc(-c3ncc4c(N5CC6CCC(C5)N6)nc(OCC56CCCN5CC(F)C6)nc4c3F)c12 (stereo unspecified) + CC(Nc1ccc2c(c1)OCCn1cc(N3C(=O)OCC3C(F)F)nc1-2)C(N)=O
IC50 [1]: > 10000 nM
IC50 [2]: > 10000 nM
IC50 [3]: 7100 nM
IC50 [4]: 1020 nM
IC50 [5]: < 31.6 nM
IC50 [6]: < 31.6 nM
viability, T/C [7]: 95.9%
viability, T/C [8]: 110%
viability, T/C [9]: 89.5%
viability, T/C [10]: 87.6%
viability, T/C [11]: 71.6%
viability, T/C [12]: 76.3%
viability, T/C [13]: 92.5%
viability, T/C [14]: 95%
viability, T/C [15]: 80.9%
viability, T/C [16]: 88.2%
viability, T/C [17]: 64.8%
viability, T/C [18]: 61%
viability, T/C [19]: 78.3%
viability, T/C [20]: 81.6%
viability, T/C [21]: 76.1%
viability, T/C [22]: 70%
viability, T/C [23]: 61.5%
viability, T/C [24]: 45.2%
viability, T/C [25]: 60.1%
viability, T/C [26]: 64.7%
viability, T/C [27]: 57.4%
viability, T/C [28]: 48.3%
viability, T/C [29]: 41.2%
viability, T/C [30]: 30%
viability, T/C [31]: 38.3%
viability, T/C [32]: 34.6%
viability, T/C [33]: 36.1%
viability, T/C [34]: 28.2%
viability, T/C [35]: 22.6%
viability, T/C [36]: 17.3%
viability, T/C [37]: 24%
viability, T/C [38]: 21.9%
viability, T/C [39]: 21.6%
viability, T/C [40]: 16%
viability, T/C [41]: 12.4%
viability, T/C [42]: 9.54%

C#Cc1c(F)ccc2cc(O)cc(-c3ncc4c(N5CC6CCC(C5)N6)nc(OCC56CCCN5CC(F)C6)nc4c3F)c12 (stereo unspecified) + Cc1nc(NC(=O)N2CCCC2C(N)=O)sc1-c1ccnc(C(C)(C)C(F)(F)F)c1
IC50 [3]: > 10000 nM
IC50 [4]: > 10000 nM
IC50 [5]: 1350 nM
IC50 [6]: < 31.6 nM
IC50 [43]: < 31.6 nM
IC50 [44]: < 31.6 nM
viability, T/C [19]: 97.6%
viability, T/C [20]: 102%
viability, T/C [21]: 92.3%
viability, T/C [22]: 82.2%
viability, T/C [23]: 71.3%
viability, T/C [24]: 67.9%
viability, T/C [25]: 79.7%
viability, T/C [26]: 81.7%
viability, T/C [27]: 92.8%
viability, T/C [28]: 74.6%
viability, T/C [29]: 61.9%
viability, T/C [30]: 51.9%
viability, T/C [31]: 64.7%
viability, T/C [32]: 59.1%
viability, T/C [33]: 57%
viability, T/C [34]: 49.4%
viability, T/C [35]: 48.9%
viability, T/C [36]: 38.2%
viability, T/C [37]: 43.8%
viability, T/C [38]: 42.3%
viability, T/C [39]: 39%
viability, T/C [40]: 34.7%
viability, T/C [41]: 28.3%
viability, T/C [42]: 21.6%
viability, T/C [45]: 25.2%
viability, T/C [46]: 23.8%
viability, T/C [47]: 22.5%
viability, T/C [48]: 17.2%
viability, T/C [49]: 12.3%
viability, T/C [50]: 10.1%
viability, T/C [51]: 10.3%
viability, T/C [52]: 10%
viability, T/C [53]: 8.35%
viability, T/C [54]: 7.39%
viability, T/C [55]: 6.74%
viability, T/C [56]: 4.92%

Cn1ncc(Cl)c1-c1cc(C(=O)NC(CN)Cc2cccc(F)c2)sc1Cl (stereo unspecified) + Cc1nc(NC(=O)N2CCCC2C(N)=O)sc1-c1ccnc(C(C)(C)C(F)(F)F)c1
IC50 [3]: 378 nM
IC50 [4]: 392 nM
IC50 [5]: 165 nM
IC50 [6]: < 31.6 nM
IC50 [43]: < 31.6 nM
IC50 [44]: < 31.6 nM
viability, T/C [19]: 76.7%
viability, T/C [20]: 75.7%
viability, T/C [21]: 50.5%
viability, T/C [22]: 32.2%
viability, T/C [23]: 17.5%
viability, T/C [24]: 12.8%
viability, T/C [25]: 79.4%
viability, T/C [26]: 77.3%
viability, T/C [27]: 53.2%
viability, T/C [28]: 28.9%
viability, T/C [29]: 16.6%
viability, T/C [30]: 9.11%
viability, T/C [31]: 60.4%
viability, T/C [32]: 56.8%
viability, T/C [33]: 41.8%
viability, T/C [34]: 23.9%
viability, T/C [35]: 13.9%
viability, T/C [36]: 9.97%
viability, T/C [37]: 43.5%
viability, T/C [38]: 40%
viability, T/C [39]: 32.1%
viability, T/C [40]: 19.2%
viability, T/C [41]: 11.3%
viability, T/C [42]: 6.42%
viability, T/C [45]: 25.1%
viability, T/C [46]: 24%
viability, T/C [47]: 19.2%
viability, T/C [48]: 13.6%
viability, T/C [49]: 8.24%
viability, T/C [50]: 4.61%
viability, T/C [51]: 11.2%
viability, T/C [52]: 10.5%
viability, T/C [53]: 11.5%
viability, T/C [54]: 8.02%
viability, T/C [55]: 4.99%
viability, T/C [56]: 1.1%

CC1(C)CCC(CN2CCN(c3ccc(C(=O)NS(=O)(=O)c4ccc(NCC5CCOCC5)c([N+](=O)[O-])c4)c(Oc4cnc5[nH]ccc5c4)c3)CC2)=C(c2ccc(Cl)cc2)C1
viability, T/C (compound 0.0316 µM): 96.8% [middle of 4 runs]
viability, T/C (compound 0.1 µM): 95.1% [middle of 4 runs]
viability, T/C (compound 0.316 µM): 92.7% [middle of 4 runs]
viability, T/C (compound 1 µM): 102% [middle of 4 runs]
viability, T/C (compound 10 µM): 32.5% [middle of 4 runs]
IC50 (curve of compound): 7.57 µM [middle of 4 runs]

COc1c(OCCCN2CCOCC2)ccc2c3n(c(=NC(=O)c4cnc(N)nc4)nc12)CCN3
viability, T/C (compound 0.00316 µM): 85% [middle of 8 runs]
viability, T/C (compound 0.01 µM): 71.1% [middle of 8 runs]
viability, T/C (compound 0.0316 µM): 39.5% [middle of 8 runs]
viability, T/C (compound 0.1 µM): 17.8% [middle of 8 runs]
viability, T/C (compound 0.316 µM): 5.89% [middle of 8 runs]
viability, T/C (compound 1 µM): 1.69% [middle of 7 runs]
IC50 (compound alone, run of 06/13/2023): 22.6 nM [middle of 6 runs]

C[C@@H](NC(=O)c1ncnc(N)c1Cl)c1ncc(C(=O)Nc2cc(C(F)(F)F)c(Cl)cn2)s1 + CC(Nc1ccc2c(c1)OCCn1cc(N3C(=O)OCC3C(F)F)nc1-2)C(N)=O
IC50 [1]: > 10000 nM
IC50 [2]: > 10000 nM
IC50 [3]: > 10000 nM
IC50 [4]: > 10000 nM
IC50 [5]: < 31.6 nM
IC50 [6]: < 31.6 nM
viability, T/C [7]: 98.6%
viability, T/C [8]: 103%
viability, T/C [9]: 101%
viability, T/C [10]: 104%
viability, T/C [11]: 113%
viability, T/C [12]: 97.7%
viability, T/C [13]: 97.2%
viability, T/C [14]: 89.3%
viability, T/C [15]: 102%
viability, T/C [16]: 99.5%
viability, T/C [17]: 107%
viability, T/C [18]: 121%
viability, T/C [19]: 78.6%
viability, T/C [20]: 74.3%
viability, T/C [21]: 78.2%
viability, T/C [22]: 90.8%
viability, T/C [23]: 93.9%
viability, T/C [24]: 85.2%
viability, T/C [25]: 55.6%
viability, T/C [26]: 56.5%
viability, T/C [27]: 61.2%
viability, T/C [28]: 61.5%
viability, T/C [29]: 67.8%
viability, T/C [30]: 53.2%
viability, T/C [31]: 37.2%
viability, T/C [32]: 34.8%
viability, T/C [33]: 38.3%
viability, T/C [34]: 39.8%
viability, T/C [35]: 40.8%
viability, T/C [36]: 41.9%
viability, T/C [37]: 23%
viability, T/C [38]: 26.8%
viability, T/C [39]: 25.3%
viability, T/C [40]: 27.2%
viability, T/C [41]: 27.7%
viability, T/C [42]: 24.8%
